Test results reported in article PMC7451656, “In vitro and in vivo growth inhibitory activities of cryptolepine hydrate against several Babesia species and Theileria equi” (PLoS Neglected Tropical Diseases, 2020).

Assays:
T. equi = test: Growth inhibitory fluorescence assay in vitro, T. equi; type: cell-based, Theileria equi; conditions: for Selective index HFF: EC50 HFF / IC50 T. equi; for Selective index MDBK: EC50 MDBK / IC50 T. equi; for Selective index NIH/3T3: EC50 NIH/3T3 / IC50 T. equi; for IC50: Theileria equi, T. equi in vitro culture, fluorescence assay, 96 h
Experimental: Texas strain of B. bovis and Argentina strain of B. bigemina were grown using bovine red blood cells (RBCs, collected from cattle farm of Obihiro University of Agriculture and Veterinary Medicine and stored at 4°C) in medium 199 (M199; Sigma-Aldrich, Tokyo, Japan) supplemented with 40% bovine serum, while RPMI 1640 medium (Sigma-Aldrich, Tokyo, Japan) was used for B. divergens (German strain) cultivation. The United States Department of Agriculture (USDA) strain of T. equi was grown in equine RBCs (collected from horse farm of Obihiro University of Agriculture and Veterinary Medicine and stored at 4°C) in M199 supplemented with 40% equine serum, and hypoxanthine (MP Biomedicals, Santa Ana, CA, USA) at a final concentration of 13.6 μg/ml was used as a vital supplement, while GIT medium was used for B. caballi (USDA strain) cultivation. Sixty μg/ml of streptomycin, 0.15 μg/ml of amphotericin B, and 60 U/ml of penicillin G (Sigma-Aldrich, Tokyo, Japan) were added to all media to prevent fungal and bacterial contamination. All parasite cultures were maintained for a long time in a microaerophilic stationary-phase culture system.
The inhibition assay was conducted according to the previously described protocol. Briefly, different concentrations of CRY, DA, CF, and AQ were added in triplicate in 96-well plates with 1% parasitemia and 2.5% HCT for B. bovis and B. bigemina and 5% HCT for B. divergens, B. caballi, and T. equi. The plates were incubated in a humidified incubator with 5% CO2, 5% O2, and 90% N2 for 96 h without changing the media. After 96 h, 100 μl of lysis buffer containing 2 × SG1 was directly added to each well and the plates were then wrapped in aluminum foil for protection from direct light and incubated for 6 h at room temperature. Afterward, the fluorescence was measured using a fluorescence spectrophotometer (Fluoroskan Ascent, Thermo Fisher Scientific, USA) at 485 nm excitation and 518 nm emission wavelengths. The relative fluorescence value was set to percentages after subtracting the mean values of the negative control. The experiment was repeated thrice.
The IC50 values of CRY, DA, CF, and AQ were determined using the nonlinear regression curve fit in GraphPad Prism (GraphPad Software Inc., San Diego, CA, USA). Combination index (CI) values for the drug combination were calculated using CompuSyn software, and the degree of synergism was determined as the weighted average of CI values using a formula [(1 x IC50) + (2 x IC75) + (3 x IC90) + (4 x IC95)]/10 [30]. The differences in parasitemia and hematology profiles in the B. microti–infected mice were analyzed using an independent Student’s t-test and one-way ANOVA test using GraphPad Prism version 5.0 for Windows (GraphPad Software Inc., San Diego, CA, USA). A P-value < 0.05 was considered statistically significant.

[1] = system: Madin–Darby bovine kidney (MDBK) cell line; test: cells; type: cell-based; conditions: for EC50: Bos taurus, MDBK, 24 h, cell viability, CCK-8
Experimental: (§1) Madin–Darby bovine kidney (MDBK) (ECACC), mouse embryonic fibroblast (NIH/3T3 ATCC CRL-1658) and Human foreskin fibroblast (HFF HFF-1 ATCC SCRC-1041) cell lines were recovered from -80°C stock and cultured continuously in our laboratory at 37°C in a humidified incubator with 5% CO2. In 75 cm^2 culture flasks, NIH/3T3 and HFF cell lines were maintained with Dulbecco’s Modified Eagle’s Medium (DMEM; Gibco, Grand Island, NY, USA), while the MDBK cell line was maintained with Minimum Essential Medium Eagle (MEM; Gibco). Ten percent fetal bovine serum, 1% glutamine, and 0.5% penicillin/streptomycin (Gibco) were added to all media and the cells were stained with 4, 6-diamidino-2-phenylindole dihydrochloride (DAPI; Sigma-Aldrich, St. Louis, MO, USA) to ensure that they were free from mycoplasma contamination. Afterward, the cells were washing twice with Dulbecco’s phosphate-buffered saline and TrypLE Express (Gibco) was used for cell detachment from the culture flask. Finally, Neubauer improved C-Chip (NanoEntek Inc., Seoul, Korea) was used for counting the viable cells after staining with 0.4% trypan blue solution.
(§2) The cytotoxicity assay was performed in accordance with the previously described protocol. Briefly, the assay was carried out using 96-well plates at 37 °C in a humidified incubator with 5% CO2, 100 μl of cells at a density of 5 x 10^4 cells/ml was seeded per well and allowed to attach to the plate for 24 h. Ten microliters of twofold drug dilutions was added to each well to a final concentration of 0.781 to 100 μM in triplicate and incubated for another 24 h. Ten μl of Cell Counting Kits-8 (CCK-8; Dojindo, Japan) was added to each well and incubated for another 3 h, and the absorbance was measured at 450 nm using a microplate reader.

[2] = system: human foreskin fibroblast (HFF) cell line; test: cells; type: cell-based; conditions: for EC50: Homo sapiens, cell viability, HFF, 24 h, CCK-8
Experimental: as §1, §2

[3] = system: mouse embryonic fibroblast (NIH/3T3) cell line; test: cells; type: cell-based; conditions: for EC50: Mus musculus, NIH3T3, cell viability, NIH/3T3, 24 h, CCK-8
Experimental: as §1, §2

[4] = system: bovine RBCs / B. divergens; test: Growth of B. divergens with CRY-treated bovine RBCs; type: cell-based, Babesia divergens; conditions: bovine RBCs pre-incubated with 1 and 10 μM CRY for 3 and 6 h, 4 days
Experimental: To investigate the hemolytic effect of CRY on host (bovine or equine) RBCs, bovine and equine RBCs were incubated with 1 and 10 μM of CRY for 3 and 6 h. The RBCs were washed thrice with phosphate-buffered saline (PBS) and mixed with B. divergens and B. caballi infected RBCs (iRBCs, recovered from −80 °C stock at our laboratory) harvested with a parasitemia of 8% and 3%, respectively and adjusted to 1% parasitemia with fresh RBCs. In a 24-well plate, 100 μl of iRBCs was added to 900 μl of complete medium and the parasite growth was monitored daily by microscopic examination of a Giemsa-stained blood smear for 4 days.

O=C1C(O)=C([C@H]2CC[C@H](c3ccc(Cl)cc3)CC2)C(=O)c2ccccc21 [AQ, atovaquone]
Selective index HFF (T. equi): ˃ 1052.6
Selective index MDBK (T. equi): ˃ 1052.6
Selective index NIH/3T3 (T. equi): ˃ 1052.6
IC50 (T. equi): 0.095 ± 6.5e-05 µM
inhibition of cell line at 100 μM [1]: did not show any inhibition
EC50 [1]: > 100 µM
inhibition of cell line at 100 μM [2]: did not show any inhibition
EC50 [2]: > 100 µM
inhibition of cell line at 100 μM [3]: did not show any inhibition
EC50 [3]: > 100 µM

Cn1c2c3ccccc3nc-2cc2ccccc21 [CRY, Cryptolepine hydrate]
Selective index HFF (T. equi): ˃ 136.9
Selective index MDBK (T. equi): 118.73
Selective index NIH/3T3 (T. equi): 130.54
concentration at which in vitro growth was significantly inhibited (T. equi; T. equi, t-test P = 0.02): 0.078 µM
IC50 (T. equi): 0.73 ± 2.5e-05 µM
EC50 [1]: 86.7 ± 4.43 µM
inhibition of cell line at 100 μM [2]: did not show any inhibition
EC50 [2]: > 100 µM
EC50 [3]: 95.3 ± 2.7 µM
multiplication of B. divergens, CRY-treated RBCs versus normal RBCs [4]: did not significantly differ
